Measured values reported in ChEMBL document CHEMBL4052725, “Synthesis and biological evaluation of novel steroidal 5α,8α-epidioxyandrost-6-ene-3β-ol-17-(O-phenylacetamide)oxime derivatives as potential anticancer agents” (Bioorg Med Chem Lett, 2017).

Columns and labels:
SK-HEP1 = assay: Antiproliferative activity against human SKHEP1 cells after 48 hrs by MTT assay; assay type: functional, cell-based; conditions: SK-HEP1, 48 h
HepG2 = assay: Antiproliferative activity against human HepG2 cells after 48 hrs by MTT assay; assay type: functional, cell-based; conditions: HepG2, 48 h
MCF7 = assay: Antiproliferative activity against human MCF7 cells after 48 hrs by MTT assay; assay type: functional, cell-based; conditions: MCF7, 48 h
MDA-MB-231 = assay: Antiproliferative activity against human MDA-MB-231 cells after 48 hrs by MTT assay; assay type: functional, cell-based; conditions: MDA-MB-231, 48 h
[1] = Drug localization in human HepG2 cells at 10 uM after 2 hrs by confocal laser scanning microscopic analysis; assay type: ADME, cell-based; conditions: hepg2, 2 h
[2] = Drug localization in mitochondria of human HepG2 cells at 10 uM after 30 mins by Rh123 green dye-based confocal laser scanning microscopic analysis; assay type: ADME; conditions: 0.5 h

Row | SMILES | IC50 (SK-HEP1) [µM] | IC50 (HepG2) [µM] | IC50 (MCF7) [µM] | IC50 (MDA-MB-231) [µM] | Drug uptake [1] | Drug uptake [2]
1 | CC(C)c1ccc(NC(=O)CO/N=C2\CC[C@H]3C4=CC=C5C[C@@H](O)CC[C@]5(C)[C@H]4CC[C@]23C)cc1 | 23.2 | 26.7 | 31.6 | 35 |  | 
2 | C[C@]12CC[C@@H]3[C@]4(C=C[C@]5(C[C@@H](O)CC[C@]35C)OO4)[C@@H]1CC/C2=N\OCC(=O)Nc1cccc(F)c1 | 37.6 | 40.5 | 29.5 | 26.3 |  | 
3 | C[C@]12CC[C@H](O)CC1=CC=C1[C@@H]2CC[C@]2(C)/C(=N/OCC(=O)Nc3ccccc3)CC[C@@H]12 | 73.8 | > 80 | > 80 | > 80 |  | 
4 | Cc1cccc(NC(=O)CO/N=C2\CC[C@H]3[C@@]45C=C[C@]6(C[C@@H](O)CC[C@]6(C)[C@@H]4CC[C@]23C)OO5)c1 | 30.6 | 35.4 | 41.6 | 45.5 |  | 
5 | C[C@]12CC[C@@H]3[C@]4(C=C[C@]5(C[C@@H](O)CC[C@]35C)OO4)[C@@H]1CC/C2=N\OCC(=O)Nc1cccc(Cl)c1 | 22.8 | 15.4 | 34.4 | 29.5 |  | 
6 | C[C@]12CC[C@H](O)CC1=CC=C1[C@@H]2CC[C@]2(C)/C(=N/OCC(=O)Nc3cccc(C(F)(F)F)c3)CC[C@@H]12 | 16.5 | 14.4 | 21.3 | 19.4 |  | 
7 | COc1ccc(NC(=O)CO/N=C2\CC[C@H]3[C@@]45C=C[C@]6(C[C@@H](O)CC[C@]6(C)[C@@H]4CC[C@]23C)OO5)cc1 | 41.4 | 49.5 | 52.2 | 46.4 |  | 
8 | C[C@]12CC[C@@H]3[C@]4(C=C[C@]5(C[C@@H](O)CC[C@]35C)OO4)[C@@H]1CC/C2=N\OCC(=O)Nc1ccc(Cl)cc1 | 11.1 | 14.8 | 19.5 | 14.2 |  | 
9 | C#Cc1cccc(NC(=O)CO/N=C2\CC[C@H]3[C@@]45C=C[C@]6(C[C@@H](O)CC[C@]6(C)[C@@H]4CC[C@]23C)OO5)c1 | 38.2 | 44.2 | 31.6 | 25.1 |  | 
10 | Cc1ccc(NC(=O)CO/N=C2\CC[C@H]3[C@@]45C=C[C@]6(C[C@@H](O)CC[C@]6(C)[C@@H]4CC[C@]23C)OO5)cc1Cl | 12.1 | 9.3 | 22.7 | 17.5 |  | 
11 | Cc1ccc(NC(=O)CO/N=C2\CC[C@H]3C4=CC=C5C[C@@H](O)CC[C@]5(C)[C@H]4CC[C@]23C)cc1Cl | 19.8 | 17.8 | 34.3 | 29.2 |  | 
12 | CCN(CC)c1ccc2cc(C(=O)NCC(=O)OC3CC[C@]4(C)[C@@H]5CC[C@]6(C)/C(=N/OCC(=O)Nc7ccc(C(C)C)cc7)CC[C@H]6[C@@]56C=C[C@]4(C3)OO6)c(=O)oc2c1 (some centres undefined) | 7.52 | 8.4 | 9.64 | 7.22 | Active | Active
13 | C[C@]12CC[C@@H]3[C@]4(C=C[C@]5(C[C@@H](O)CC[C@]35C)OO4)[C@@H]1CC/C2=N\OCC(=O)Nc1ccc(F)cc1 | 10.7 | 15.8 | 14.5 | 12.7 |  | 
14 | COc1cccc(NC(=O)CO/N=C2\CC[C@H]3C4=CC=C5C[C@@H](O)CC[C@]5(C)[C@H]4CC[C@]23C)c1 | > 80 | 70.6 | > 80 | 59.3 |  | 
15 | C[C@]12CC[C@@H]3[C@]4(C=C[C@]5(C[C@@H](O)CC[C@]35C)OO4)[C@@H]1CC/C2=N\OCC(=O)Nc1cccc(C(F)(F)F)c1 | 15.6 | 13.5 | 23.1 | 20.4 |  | 
16 | C[C@]12CC[C@@H]3[C@]4(C=C[C@]5(C[C@@H](O)CC[C@]35C)OO4)[C@@H]1CC/C2=N\OCC(=O)Nc1ccccc1 | 60.4 | 48.3 | > 80 | 74.2 |  | 
17 | Cc1ccc(NC(=O)CO/N=C2\CC[C@H]3[C@@]45C=C[C@]6(C[C@@H](O)CC[C@]6(C)[C@@H]4CC[C@]23C)OO5)cc1 | 46.3 | 38.3 | 62.2 | > 80 |  | 
18 | CC(C)[C@@H](C)/C=C/[C@@H](C)[C@H]1CC[C@@H]2[C@]1(C)CC[C@@H]1[C@]23C=C[C@]2(C[C@@H](O)CC[C@]12C)OO3 | 17.2 | 15.8 | 23.3 | 19.2 |  | 
19 | C[C@]12CC[C@@H]3[C@]4(C=C[C@]5(C[C@@H](O)CC[C@]35C)OO4)[C@@H]1CC/C2=N\OCC(=O)Nc1ccc(Br)cc1 | 24.4 | 29.9 | 40.3 | 37.5 |  | 
20 | C[C@]12CC[C@H](O)CC1=CC=C1[C@@H]2CC[C@]2(C)/C(=N/OCC(=O)Nc3cccc(Cl)c3)CC[C@@H]12 | 26.6 | 22.7 | 42.1 | 33.5 |  | 
21 | COc1cccc(NC(=O)CO/N=C2\CC[C@H]3[C@@]45C=C[C@]6(C[C@@H](O)CC[C@]6(C)[C@@H]4CC[C@]23C)OO5)c1 | 50.2 | 44.9 | 43.2 | 57.3 |  | 
22 | CC(C)c1ccc(NC(=O)CO/N=C2\CC[C@H]3[C@@]45C=C[C@]6(C[C@@H](O)CC[C@]6(C)[C@@H]4CC[C@]23C)OO5)cc1 | 14.6 | 12.1 | 20.4 | 15.8 |  | 
23 | C[C@]12CC[C@@H]3[C@]4(C=C[C@]5(C[C@@H](O)CC[C@]35C)OO4)[C@@H]1CC/C2=N\OCC(=O)Nc1ccc(F)c(Cl)c1 | 14.3 | 11.3 | 26.2 | 24.6 |  | 
